This is an account of results in patent US20260022103A1, “PRAMIPEXOLE XINAFOATE AND SUSTAINED-RELEASE PHARMACEUTICAL FORMULATION THEREOF” (JEWIM PHARMACEUTICAL (SHANDONG) CO., LTD., priority 2022, published 2026).

Structures can show the parent of a compound that is named as a salt. Where two headings read alike, the source gives them in different places.

Data set [1] concerns the target dopamine D2 receptor (Homo sapiens, UniProt P14416). The conditions noted are these: cited from earlier work.
The conditions of data set [2]: for Saturation concentration: 48 h. The method, then: The concentrations of the pramipexole salts in different media for saturation at 48 h were determined by a shake flask dissolution method at 37° C.
A short description of data set [3]: Pharmacokinetics of different pramipexole salt suspension injections in rats. Format: in vivo. To be noted: subcutaneous suspension injection. The method, then:
18 adult rats, including 12 males and 6 females (non-perilactation period), were selected and divided into three groups with 6 rats each group (a ratio of males to females of 2:1), and subcutaneously administered with 2 ml of the suspension injections of Examples 3-5 respectively. The main pharmacokinetic parameters of each of test animals were determined: the time to peak, the maximal blood drug level and AUC0-t.

Setting [4] is: Phosphate buffer at pH 6.8, 37° C.
[5] abbreviates: Phosphate buffer at pH 7.4, 37° C.

Chain of dopamine D2 receptor (P14416 whole entry, species assumed): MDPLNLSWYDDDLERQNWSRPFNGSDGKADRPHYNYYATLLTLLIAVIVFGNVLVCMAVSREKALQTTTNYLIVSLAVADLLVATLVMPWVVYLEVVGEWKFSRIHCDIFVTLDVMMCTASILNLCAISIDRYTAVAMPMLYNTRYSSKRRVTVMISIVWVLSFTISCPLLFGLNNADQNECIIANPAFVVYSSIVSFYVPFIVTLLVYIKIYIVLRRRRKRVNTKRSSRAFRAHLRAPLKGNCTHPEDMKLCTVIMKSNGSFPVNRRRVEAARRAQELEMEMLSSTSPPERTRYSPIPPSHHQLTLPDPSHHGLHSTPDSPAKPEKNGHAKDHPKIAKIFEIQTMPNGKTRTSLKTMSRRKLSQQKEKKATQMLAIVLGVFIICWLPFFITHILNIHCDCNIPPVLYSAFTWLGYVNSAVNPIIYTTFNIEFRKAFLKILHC

Turning to `CCCN[C@H]1CCc2nc(N)sc2C1` [S(−) isomer, (S)-(−)-2-amino-6-(propylamino)-4,5,6,7-tetrahydrobenzothiazole], the “Affinity to dopamine D2 receptor relative to the R(+) isomer” value in data set [1] (ratio versus R(+) isomer) is listed as 8-10 times. Also, the “Affinity to dopamine D2 receptor relative to the racemate” value in data set [1] (ratio versus racemate) was 2 times.

As to `CCCN[C@H]1CCc2nc(N)sc2C1.O=C(O)c1ccccc1` [pramipexole benzoate], the Saturation concentration stood at 325.91 µg/mL in data set [2] (0.9% NaCl, 37° C.); 392.11 µg/mL in data set [2] (setting [4]); 427.37 µg/mL in data set [2] (setting [5]); 292.72 µg/mL in data set [2] (Water for injection, 37° C.).

As for `CCCN[C@H]1CCc2nc(N)sc2C1` [pramipexole hydrochloride, Pramipexole hydrochloride], the Saturation concentration worked out at 1207.41 µg/mL in data set [2] (0.9% NaCl, 37° C., hydrochloride); 1249.45 µg/mL in data set [2] (Phosphate buffer at pH 6.8, 37° C., hydrochloride); 1363.53 µg/mL in data set [2] (Phosphate buffer at pH 7.4, 37° C., hydrochloride); 1187.36 µg/mL in data set [2] (Water for injection, 37° C., hydrochloride).

In the case of `CCCN[C@H]1CCc2nc(N)sc2C1` [pramipexole xinafoate], the Saturation concentration in data set [2] (0.9% NaCl, 37° C.) is 1.05 µg/mL; in data set [2] (setting [4]), 2.64 µg/mL; in data set [2] (setting [5]) it was 4.66 µg/mL; in data set [2] (Water for injection, 37° C.), 0.78 µg/mL. The “Solubility compared with the other salts” value in data set [2] (summary of Table 1) is reported as “significantly decreased”. Further, the “Duration of sustained release” value in data set [3] is “up to 35 days”.

For pramipexole pamoate, the Saturation concentration amounted to 227.63 µg/mL in data set [2] (0.9% NaCl, 37° C.); 275.34 µg/mL in data set [2] (setting [4]); 345.29 µg/mL in data set [2] (setting [5]); 189.25 µg/mL in data set [2] (Water for injection, 37° C.).
